{"source": "ChEMBL document CHEMBL1123242", "about": "“Derivatives of 1-(1,3-benzodioxol-5-yl)-2-butanamine: representatives of a novel therapeutic class” (1986)", "type_in_all_cases": "functional", "key": {"Rattus norvegicus [1]": {"tested_on": "Rattus norvegicus", "assay": "Compound was tested for hallucinogenic activity in rats at 15 dose(mg/kg); 0/0, highest dose tested"}, "Rattus norvegicus [2]": {"tested_on": "Rattus norvegicus", "assay": "Compound was tested for hallucinogenic activity in rats at 1.95 dose(mg/kg); Number of rats selecting the LSD lever/ number of rats responding (1/7)"}, "Rattus norvegicus [3]": {"tested_on": "Rattus norvegicus", "assay": "Compound was tested for hallucinogenic activity in rats at 2.07 dose(mg/kg); 0/0, highest dose tested"}, "Rattus norvegicus [4]": {"tested_on": "Rattus norvegicus", "assay": "Compound was tested for hallucinogenic activity in rats at the dose 0.37(mg/kg); Number of rats selecting the LSD lever/ number of rats responding (0/8)"}, "Rattus norvegicus [5]": {"tested_on": "Rattus norvegicus", "assay": "Compound was tested for hallucinogenic activity in rats at the dose 0.73(mg/kg); Number of rats selecting the LSD lever/ number of rats responding (0/8)"}, "Rattus norvegicus [6]": {"tested_on": "Rattus norvegicus", "assay": "Compound was tested for hallucinogenic activity in rats at 0.32(mg/kg)"}, "Rattus norvegicus [7]": {"tested_on": "Rattus norvegicus", "assay": "Compound was tested for hallucinogenic activity in rats at the dose 0 (mg/kg)"}, "Rattus norvegicus [8]": {"tested_on": "Rattus norvegicus", "assay": "Compound was tested for hallucinogenic activity in rats at 0.32dose (mg/kg); Number of rats selecting the LSD lever/ number of rats responding (0/8)"}, "Rattus norvegicus [9]": {"tested_on": "Rattus norvegicus", "assay": "Compound was tested for hallucinogenic activity in rats at 0.63 dose(mg/kg); Number of rats selecting the LSD lever/ number of rats responding (2/8)"}, "Rattus norvegicus [10]": {"tested_on": "Rattus norvegicus", "assay": "Compound was tested for hallucinogenic activity in rats at 1.72 dose(mg/kg); Number of rats selecting the LSD lever/ number of rats responding (7/8)"}, "Rattus norvegicus [11]": {"tested_on": "Rattus norvegicus", "assay": "Compound was tested for hallucinogenic activity in rats at 1.29 dose(mg/kg); Number of rats selecting the LSD lever/ number of rats responding (5/8)"}, "Rattus norvegicus [12]": {"tested_on": "Rattus norvegicus", "assay": "Compound was tested for hallucinogenic activity in rats at the dose 0.17 (mg/kg)"}, "Rattus norvegicus [13]": {"tested_on": "Rattus norvegicus", "assay": "Compound was tested for hallucinogenic activity in rats at the dose 1.38 (mg/kg)"}, "Rattus norvegicus [14]": {"tested_on": "Rattus norvegicus", "assay": "Compound was tested for hallucinogenic activity in rats at 0.69 dose(mg/kg); Number of rats selecting the LSD lever/ number of rats responding (1/8)"}, "Rattus norvegicus [15]": {"tested_on": "Rattus norvegicus", "assay": "Compound was tested for hallucinogenic activity in rats at 2.41 dose(mg/kg); Number of rats selecting the LSD lever/ number of rats responding (8/8)"}, "Rattus norvegicus [16]": {"tested_on": "Rattus norvegicus", "assay": "Compound was tested for hallucinogenic activity in rats at 1.72 dose (mg/kg); Number of rats selecting the LSD lever/ number of rats responding (2/8)"}, "Rattus norvegicus [17]": {"tested_on": "Rattus norvegicus", "assay": "Compound was tested for hallucinogenic activity in rats at 2.07 dose(mg/kg); Number of rats selecting the LSD lever/ number of rats responding (3/8)"}, "Rattus norvegicus [18]": {"tested_on": "Rattus norvegicus", "assay": "Compound was tested for hallucinogenic activity in rats at dose 1.38 (mg/kg); Number of rats selecting the LSD lever/ number of rats responding (3/8)"}, "Rattus norvegicus [19]": {"tested_on": "Rattus norvegicus", "assay": "Compound was tested for hallucinogenic activity in rats at the dose 0.17(mg/kg); Number of rats selecting the LSD lever/ number of rats responding (1/8)"}, "Rattus norvegicus [20]": {"tested_on": "Rattus norvegicus", "assay": "Compound was tested for hallucinogenic activity in rats at the dose 0.34(mg/kg); Number of rats selecting the LSD lever/ number of rats responding (1/8)"}, "Rattus norvegicus [21]": {"tested_on": "Rattus norvegicus", "assay": "Compound was tested for hallucinogenic activity in rats at 2.19 dose(mg/kg); Number of rats selecting the LSD lever/ number of rats responding (2/8)"}, "Rattus norvegicus [22]": {"tested_on": "Rattus norvegicus", "assay": "Compound was tested for hallucinogenic activity in rats at 2.56 dose(mg/kg); Number of rats selecting the LSD lever/ number of rats responding (2/8)"}, "Rattus norvegicus [23]": {"tested_on": "Rattus norvegicus", "assay": "Compound was tested for hallucinogenic activity in rats at 2.92 dose(mg/kg); Number of rats selecting the LSD lever/ number of rats responding (3/8)"}, "Rattus norvegicus [24]": {"tested_on": "Rattus norvegicus", "assay": "Compound was tested for hallucinogenic activity in rats at 3.65 dose(mg/kg); 0/1, highest dose tested"}, "Rattus norvegicus [25]": {"tested_on": "Rattus norvegicus", "assay": "Compound was tested for hallucinogenic activity in rats at 1.83 dose (mg/kg); Number of rats selecting the LSD lever/ number of rats responding (1/8)"}, "Rattus norvegicus [26]": {"tested_on": "Rattus norvegicus", "assay": "Compound was tested for hallucinogenic activity in rats at dose 1.46 (mg/kg); Number of rats selecting the LSD lever/ number of rats responding (1/8)"}, "Rattus norvegicus [27]": {"tested_on": "Rattus norvegicus", "assay": "Compound was tested for hallucinogenic activity in rats at the dose 0.17 mg/kg); Number of rats selecting the LSD lever/ number of rats responding (3/8)"}, "Rattus norvegicus [28]": {"tested_on": "Rattus norvegicus", "assay": "Compound was tested for hallucinogenic activity in rats at the dose 0.37(mg/kg); Number of rats selecting the LSD lever/ number of rats responding (1/8)"}, "Rattus norvegicus [29]": {"tested_on": "Rattus norvegicus", "assay": "Compound was tested for hallucinogenic activity in rats at 0.73(mg/kg); Number of rats selecting the LSD lever/ number of rats responding (1/8)"}, "Rattus norvegicus [30]": {"tested_on": "Rattus norvegicus", "assay": "Compound was tested for hallucinogenic activity in rats at 1.38 dose(mg/kg); Number of rats selecting the LSD lever/ number of rats responding (3/8)"}, "Rattus norvegicus [31]": {"tested_on": "Rattus norvegicus", "assay": "Compound was tested for hallucinogenic activity in rats at 1.84 dose(mg/kg); 2/4, highest dose tested"}, "Rattus norvegicus [32]": {"tested_on": "Rattus norvegicus", "assay": "Compound was tested for hallucinogenic activity in rats at the dose 0.34 (mg/kg); Number of rats selecting the LSD lever/ number of rats responding (0/8)"}, "Rattus norvegicus [33]": {"tested_on": "Rattus norvegicus", "assay": "Compound was tested for hallucinogenic activity in rats at the dose 0.69(mg/kg); Number of rats selecting the LSD lever/ number of rats responding (0/8)"}, "Rattus norvegicus [34]": {"tested_on": "Rattus norvegicus", "assay": "Compound was tested for hallucinogenic activity in rats at the dose 0.16 (mg/kg)"}, "Rattus norvegicus [35]": {"tested_on": "Rattus norvegicus", "assay": "Compound was tested for hallucinogenic activity in rats at 0.16 dose(mg/kg); Number of rats selecting the LSDlever/ number of rats responding (1/8)"}, "Rattus norvegicus [36]": {"tested_on": "Rattus norvegicus", "assay": "Compound was tested for hallucinogenic activity in rats at 0.32 dose(mg/kg); Number of rats selecting the LSDlever/ number of rats responding (2/8)"}, "Rattus norvegicus [37]": {"tested_on": "Rattus norvegicus", "assay": "Compound was tested for hallucinogenic activity in rats at the 0.63 dose(mg/kg); Number of rats selecting the LSDlever/ number of rats responding (2/8)"}, "Rattus norvegicus [38]": {"tested_on": "Rattus norvegicus", "assay": "Compound was tested for hallucinogenic activity in rats at the 1.29 dose(mg/kg); Number of rats selecting the LSDlever/ number of rats responding (7/8)"}}}
{"smiles": "CC[C@@H](Cc1ccc2c(c1)OCO2)NC", "values": [{"measurement": "Result", "setting": "Rattus norvegicus [1]", "result": 0}]}
{"smiles": "CCC(Cc1ccc2c(c1)OCO2)NC", "note": "(racemic)", "values": [{"measurement": "Result", "setting": "Rattus norvegicus [2]", "result": 1}, {"measurement": "Result", "setting": "Rattus norvegicus [3]", "result": 0}, {"measurement": "Result", "setting": "Rattus norvegicus [4]", "result": 0}, {"measurement": "Result", "setting": "Rattus norvegicus [5]", "result": 0}]}
{"smiles": "CC(N)Cc1ccc2c(c1)OCO2", "note": "(racemic) [TENAMFETAMINE]", "values": [{"measurement": "ED50", "setting": "Rattus norvegicus [6]", "result": 0.97, "unit": "mg/kg"}, {"measurement": "ED50", "setting": "Rattus norvegicus [7]", "result": 4.52, "unit": "µmol/kg"}, {"measurement": "Result", "setting": "Rattus norvegicus [8]", "result": 0}, {"measurement": "Result", "setting": "Rattus norvegicus [9]", "result": 2}, {"measurement": "Result", "setting": "Rattus norvegicus [10]", "result": 7}, {"measurement": "Result", "setting": "Rattus norvegicus [11]", "result": 5}]}
{"smiles": "CC[C@H](N)Cc1ccc2c(c1)OCO2", "values": [{"measurement": "ED50", "setting": "Rattus norvegicus [12]", "result": 6, "unit": "µmol/kg"}, {"measurement": "ED50", "setting": "Rattus norvegicus [13]", "result": 1.38, "unit": "mg/kg"}, {"measurement": "Result", "setting": "Rattus norvegicus [14]", "result": 1}, {"measurement": "Result", "setting": "Rattus norvegicus [15]", "result": 8}, {"measurement": "Result", "setting": "Rattus norvegicus [16]", "result": 2}, {"measurement": "Result", "setting": "Rattus norvegicus [17]", "result": 3}, {"measurement": "Result", "setting": "Rattus norvegicus [18]", "result": 3}, {"measurement": "Result", "setting": "Rattus norvegicus [19]", "result": 1}, {"measurement": "Result", "setting": "Rattus norvegicus [20]", "result": 1}]}
{"smiles": "CC[C@H](Cc1ccc2c(c1)OCO2)NC", "values": [{"measurement": "Result", "setting": "Rattus norvegicus [21]", "result": 2}, {"measurement": "Result", "setting": "Rattus norvegicus [22]", "result": 2}, {"measurement": "Result", "setting": "Rattus norvegicus [23]", "result": 3}, {"measurement": "Result", "setting": "Rattus norvegicus [24]", "result": 0}, {"measurement": "Result", "setting": "Rattus norvegicus [25]", "result": 1}, {"measurement": "Result", "setting": "Rattus norvegicus [26]", "result": 1}, {"measurement": "Result", "setting": "Rattus norvegicus [27]", "result": 3}, {"measurement": "Result", "setting": "Rattus norvegicus [28]", "result": 1}, {"measurement": "Result", "setting": "Rattus norvegicus [29]", "result": 1}]}
{"smiles": "CCC(N)Cc1ccc2c(c1)OCO2", "note": "(racemic)", "values": [{"measurement": "Result", "setting": "Rattus norvegicus [30]", "result": 3}, {"measurement": "Result", "setting": "Rattus norvegicus [31]", "result": 2}, {"measurement": "Result", "setting": "Rattus norvegicus [32]", "result": 0}, {"measurement": "Result", "setting": "Rattus norvegicus [33]", "result": 0}]}
{"smiles": "C[C@@H](N)Cc1ccc2c(c1)OCO2", "values": [{"measurement": "ED50", "setting": "Rattus norvegicus [34]", "result": 2.94, "unit": "µmol/kg"}, {"measurement": "Result", "setting": "Rattus norvegicus [35]", "result": 1}, {"measurement": "Result", "setting": "Rattus norvegicus [36]", "result": 2}, {"measurement": "Result", "setting": "Rattus norvegicus [37]", "result": 2}, {"measurement": "Result", "setting": "Rattus norvegicus [38]", "result": 7}]}
